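GI50 marks 50% less growth. TGI denotes the concentration required for complete inhibition of growth.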
Tests used:
Test in all cases: NCI anticancer screen, dose series, 384-well format
[1] = test system: DU-145 prostate
[2] = test system: KM12 colon
[3] = test system: SK-MEL-5 melanoma
[4] = test system: 786-0 renal
[5] = test system: HOP-92 NSCLC
[6] = test system: NCI-H460 NSCLC
[7] = test system: MDA-MB-468 breast
[8] = test system: RXF 393 renal
[9] = test system: M14 melanoma
[10] = test system: EKVX NSCLC
[11] = test system: T-47D breast
[12] = test system: OVCAR-3 ovarian
[13] = test system: UACC-257 melanoma
[14] = test system: CAKI-1 renal
[15] = test system: HCT-116 colon
[16] = test system: SN12C renal
[17] = test system: UO-31 renal
[18] = test system: TK-10 renal
[19] = test system: HOP-62 NSCLC
[20] = test system: OVCAR-5 ovarian
[21] = test system: HT29 colon
[22] = test system: OVCAR-4 ovarian
[23] = test system: IGROV1 ovarian
[24] = test system: HCC-2998 colon
[25] = test system: SF-539 CNS
[26] = test system: COLO 205 colon
[27] = test system: ACHN renal
[28] = test system: MCF7 breast
[29] = test system: HS 578T breast
[30] = test system: NCI-H522 lung
[31] = test system: NCI-H322M lung
[32] = test system: UACC-62 melanoma
[33] = test system: PC-3 prostate
[34] = test system: MDA-MB-435 melanoma
[35] = test system: SF-268 CNS
[36] = test system: MALME-3M melanoma
[37] = test system: NCI/ADR-RES ovarian
[38] = test system: OVCAR-8 ovarian
[39] = test system: NCI-H23 lung
[40] = test system: BT-549 breast
[41] = test system: SK-MEL-28 melanoma
[42] = test system: SF-295 CNS
[43] = test system: SNB-75 CNS
[44] = test system: MOLT-4 leukemia
[45] = test system: U251 glioblastoma
[46] = test system: RPMI-8226 leukemia
[47] = test system: A498 renal
[48] = test system: SNB-19 CNS
[49] = test system: NCI-H226 lung
[50] = test system: SK-OV-3 ovarian
[51] = test system: MDA-MB-231 breast
[52] = test system: LOX IMVI melanoma
[53] = test system: SR leukemia
[54] = test system: SW-620 colon
[55] = test system: HCT-15 colon
[56] = test system: A549 NSCLC
[57] = test system: HL-60(TB) leukemia

With `Cn1cnc2c(F)c(Nc3ccc(Br)cc3Cl)c(C(=O)NOCCO)cc21` the GI50 [1] was 42.4 µM, the TGI [1] was over 100 µM and the GI50 [2] was 0.481 µM. The TGI [2] was over 100 µM, the GI50 [3] was 0.0449 µM and the TGI [3] was 0.616 µM. The GI50 [4] was 12.2 µM, the TGI [4] was over 100 µM and the GI50 [5] was 2.08 µM. The TGI [5] was 14.5 µM, the GI50 [6] was over 100 µM and the TGI [6] was over 100 µM. The GI50 [7] was 55.3 µM, the TGI [7] was over 100 µM and the GI50 [8] was 0.101 µM. The TGI [8] was 12.3 µM, the GI50 [9] was 0.0211 µM and the TGI [9] was 0.144 µM. The GI50 [10] was 18.6 µM, the TGI [10] was over 100 µM and the GI50 [11] was 84.8 µM. For the same molecule, the TGI [11] was over 100 µM, the GI50 [12] was 44.9 µM and the TGI [12] was over 100 µM. It also gave a GI50 [13] of 0.0456 µM, a TGI [13] of 0.278 µM and a GI50 [14] of 1.73 µM. For the same molecule, the TGI [14] was over 100 µM, the GI50 [15] was 0.553 µM and the TGI [15] was 12.2 µM. The GI50 [16] was 7.8 µM, the TGI [16] was over 100 µM and the GI50 [17] was 3.21 µM. The TGI [17] was 21.2 µM, the GI50 [18] was 42.4 µM and the TGI [18] was over 100 µM. The GI50 [19] was 1.22 µM, the TGI [19] was over 100 µM and the GI50 [20] was 0.205 µM. The TGI [20] was over 100 µM, the GI50 [21] was 0.0948 µM and the TGI [21] was over 100 µM. For the same molecule, the GI50 [22] was 14.4 µM, the TGI [22] was over 100 µM and the GI50 [23] was 0.914 µM. It also gave a TGI [23] of 47 µM, a GI50 [24] of 0.0284 µM and a TGI [24] of 1.3 µM. For the same molecule, the GI50 [25] was 12.2 µM, the TGI [25] was 56.5 µM and the GI50 [26] was 0.02 µM. It also gave a TGI [26] of 0.122 µM, a GI50 [27] of 6.87 µM and a TGI [27] of over 100 µM. For the same molecule, the GI50 [28] was over 100 µM, the TGI [28] was over 100 µM and the GI50 [29] was 17.5 µM. For the same molecule, the TGI [29] was over 100 µM, the GI50 [30] was 42.8 µM and the TGI [30] was over 100 µM. The GI50 [31] was 0.363 µM, the TGI [31] was over 100 µM and the GI50 [32] was 0.0318 µM. It also gave a TGI [32] of 0.311 µM, a GI50 [33] of over 100 µM and a TGI [33] of over 100 µM. The GI50 [34] was 0.266 µM, the TGI [34] was over 100 µM and the GI50 [35] was over 100 µM. The TGI [35] was over 100 µM, the GI50 [36] was 0.0114 µM and the TGI [36] was 0.0363 µM. The GI50 [37] was over 100 µM, the TGI [37] was over 100 µM and the GI50 [38] was 67.4 µM. The TGI [38] was over 100 µM, the GI50 [39] was 0.26 µM and the TGI [39] was 9.91 µM. For the same molecule, the GI50 [40] was 6.05 µM, the TGI [40] was 52.1 µM and the GI50 [41] was 0.0217 µM. The TGI [41] was 0.147 µM, the GI50 [42] was over 100 µM and the TGI [42] was over 100 µM. For the same molecule, the GI50 [43] was 3.12 µM, the TGI [43] was 85.9 µM and the GI50 [44] was 49 µM. For the same molecule, the TGI [44] was over 100 µM, the GI50 [45] was 19.5 µM and the TGI [45] was over 100 µM. For the same molecule, the GI50 [46] was 21.1 µM, the TGI [46] was over 100 µM and the GI50 [47] was 3.46 µM. The TGI [47] was 35.4 µM, the GI50 [48] was 51.5 µM and the TGI [48] was over 100 µM. For the same molecule, the GI50 [49] was 0.267 µM, the TGI [49] was 38.7 µM and the GI50 [50] was over 100 µM. For the same molecule, the TGI [50] was over 100 µM, the GI50 [51] was 1.06 µM and the TGI [51] was 17.3 µM. For the same molecule, the GI50 [52] was 0.425 µM, the TGI [52] was 13.5 µM and the GI50 [53] was 47 µM. For the same molecule, the TGI [53] was over 100 µM, the GI50 [54] was 0.039 µM and the TGI [54] was over 100 µM. It also gave a GI50 [55] of 21.5 µM, a TGI [55] of over 100 µM and a GI50 [56] of 0.58 µM. For the same molecule, the TGI [56] was over 100 µM.
With `CC(C)(C)Cn1c(N)nc2ccc(-c3[nH]c(C(C)(C)C)nc3-c3ccc(F)cc3)nc21` the GI50 [1] was 9.61 µM, the TGI [1] was 21.6 µM and the GI50 [2] was 5.24 µM. It also gave a TGI [2] of 17.4 µM, a GI50 [3] of 3.7 µM and a TGI [3] of 15.7 µM. For the same molecule, the GI50 [5] was 10.2 µM, the TGI [5] was 22 µM and the GI50 [57] was 3.78 µM. The TGI [57] was 10.4 µM, the GI50 [6] was 4.3 µM and the TGI [6] was 16.2 µM. It also gave a GI50 [7] of 2.93 µM, a TGI [7] of 15.5 µM and a GI50 [8] of 12.9 µM. It also gave a TGI [8] of 25.6 µM, a GI50 [9] of 12.9 µM and a TGI [9] of 25.6 µM. For the same molecule, the GI50 [10] was 2.74 µM, the TGI [10] was 15.4 µM and the GI50 [11] was 9.88 µM. It also gave a TGI [11] of 21.6 µM, a GI50 [12] of 9.69 µM and a TGI [12] of 21.5 µM. For the same molecule, the GI50 [13] was 2.92 µM, the TGI [13] was 7.71 µM and the GI50 [14] was 6.13 µM. It also gave a TGI [14] of 19.9 µM, a GI50 [15] of 6.38 µM and a TGI [15] of 18.9 µM. It also gave a GI50 [16] of 1.8 µM, a TGI [16] of 14.7 µM and a GI50 [18] of 3.02 µM. The TGI [18] was 14.6 µM, the GI50 [19] was 11.4 µM and the TGI [19] was 23.7 µM. The GI50 [20] was 3.37 µM, the TGI [20] was 13 µM and the GI50 [21] was 2.33 µM. For the same molecule, the TGI [21] was 6.39 µM, the GI50 [22] was 7.46 µM and the TGI [22] was 20.3 µM. It also gave a GI50 [23] of 2.57 µM, a TGI [23] of 12.4 µM and a GI50 [24] of 3.6 µM. The TGI [24] was 14.4 µM, the GI50 [25] was 11.9 µM and the TGI [25] was 24.4 µM. The GI50 [26] was 16 µM, the TGI [26] was 29.5 µM and the GI50 [27] was 1.9 µM. It also gave a TGI [27] of 12.3 µM, a GI50 [28] of 6.64 µM and a TGI [28] of 19.3 µM. It also gave a GI50 [29] of 11.4 µM, a TGI [29] of 23.6 µM and a GI50 [30] of 5.97 µM. For the same molecule, the TGI [30] was 18.9 µM, the GI50 [31] was 4.97 µM and the TGI [31] was 17.7 µM. For the same molecule, the GI50 [32] was 10.7 µM, the TGI [32] was 22.7 µM and the GI50 [33] was 10.2 µM. It also gave a TGI [33] of 22.1 µM, a GI50 [34] of 13.4 µM and a TGI [34] of 26.3 µM. The GI50 [35] was 11.8 µM, the TGI [35] was 24.3 µM and the GI50 [36] was 4.26 µM. The TGI [36] was 16.7 µM, the GI50 [37] was 3.76 µM and the TGI [37] was 17.4 µM. The GI50 [38] was 9.78 µM, the TGI [38] was 21.8 µM and the GI50 [39] was 11.5 µM. It also gave a TGI [39] of 23.9 µM, a GI50 [40] of 12 µM and a TGI [40] of 24.5 µM. The GI50 [41] was 12.6 µM, the TGI [41] was 25.3 µM and the GI50 [42] was 10.6 µM. The TGI [42] was 22.6 µM, the GI50 [43] was 13.5 µM and the TGI [43] was 26.5 µM. For the same molecule, the GI50 [44] was 7.35 µM, the TGI [44] was 19.5 µM and the GI50 [45] was 6.13 µM. For the same molecule, the TGI [45] was 18.6 µM, the GI50 [46] was 2 µM and the TGI [46] was 5.4 µM. The GI50 [47] was 4.54 µM, the TGI [47] was 18.6 µM and the GI50 [48] was 11.9 µM. The TGI [48] was 24.3 µM, the GI50 [49] was 13.1 µM and the TGI [49] was 25.8 µM. It also gave a GI50 [50] of 8.25 µM, a TGI [50] of 21 µM and a GI50 [51] of 11.7 µM. The TGI [51] was 24.1 µM, the GI50 [52] was 13.5 µM and the TGI [52] was 26.3 µM. The GI50 [53] was 2.63 µM, the TGI [53] was 13.5 µM and the GI50 [55] was 2.16 µM. The TGI [55] was 4.75 µM, the GI50 [56] was 9.53 µM and the TGI [56] was 21.7 µM.

— PubChem BioAssay (NCI)
